Test results published in the supplement of paper PMC6045584.
± gives the standard deviation of the averaged measurements.

What was measured:
[1] = compound: O=C(NOCC1CC1)c1ccc(F)c(F)c1Nc1ccc(I)cc1Cl; assay: surviving fraction relative to DMSO-only wells; higher = less growth inhibition; settings: exposure time: 5 days
In short: (§1)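 Lines were retained only if, across three screens, replicate Pearson r was >0.7 and median Z' was >0.3. Viability was measured as CellTiter-Glo luminescence and reported as surviving fraction relative to the median of DMSO-only wells. Readings followed 10 minutes at room temperature, after log-phase tumour cells seeded at 250–500 per well in 384-well plates had been exposed, from 24 hours after seeding, continuously for five days to inhibitors at 0.5, 1, 5, 10, 50, 100, 500 and 1000 nM.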

METHOTREXATE = compound: CN(Cc1cnc2nc(N)nc(N)c2n1)c1ccc(C(=O)N[C@@H](CCC(=O)O)C(=O)O)cc1 [METHOTREXATE]; assay: as above; settings: exposure time: 5 days
In short: as §1

Test System | surviving fraction ([1]; 0.5 nM) | surviving fraction ([1]; 1 nM) | surviving fraction ([1]; 5 nM) | surviving fraction ([1]; 10 nM) | surviving fraction ([1]; 50 nM) | surviving fraction ([1]; 100 nM) | surviving fraction ([1]; 500 nM) | surviving fraction ([1]; 1000 nM) | surviving fraction (METHOTREXATE; 0.5 nM) | surviving fraction (METHOTREXATE; 1 nM) | surviving fraction (METHOTREXATE; 5 nM) | surviving fraction (METHOTREXATE; 10 nM) | surviving fraction (METHOTREXATE; 50 nM) | surviving fraction (METHOTREXATE; 100 nM) | surviving fraction (METHOTREXATE; 500 nM) | surviving fraction (METHOTREXATE; 1000 nM)
C33A CERVIX | 0.68 ± 0.058 | 0.7503 ± 0.0031 | 0.868 ± 0.12 | 0.841 ± 0.071 | 0.736 ± 0.085 | 0.686 ± 0.047 | 0.477 ± 0.066 | 0.461 ± 0.032 | 1.01 ± 0.15 | 0.936 ± 0.025 | 0.987 ± 0.11 | 0.519 ± 0.048 | 0.592 ± 0.075 | 0.585 ± 0.05 | 0.566 ± 0.034 | 0.557 ± 0.034
CAL72 BONE | 1.045 ± 0.0036 | 1.065 ± 0.0074 | 1.07 ± 0.012 | 1.09 ± 0.041 | 1.051 ± 0.0061 | 1.085 ± 0.0095 | 1.07 ± 0.021 | 1.056 ± 0.0038 | 1.04 ± 0.15 | 1.02 ± 0.13 | 1.03 ± 0.13 | 1.04 ± 0.11 | 0.641 ± 0.051 | 0.323 ± 0.061 | 0.301 ± 0.054 | 0.303 ± 0.068
G292 BONE | 0.986 ± 0.059 | 0.942 ± 0.064 | 0.985 ± 0.052 | 0.986 ± 0.035 | 0.967 ± 0.041 | 0.959 ± 0.058 | 0.897 ± 0.047 | 0.924 ± 0.0059 | 1.01 ± 0.048 | 1.07 ± 0.032 | 1.04 ± 0.069 | 1.06 ± 0.042 | 1.02 ± 0.042 | 1.04 ± 0.029 | 1.017 ± 0.0058 | 1.01 ± 0.024
HUO3N1 BONE | 1.04 ± 0.051 | 1.01 ± 0.056 | 1.05 ± 0.03 | 1.04 ± 0.029 | 1.03 ± 0.037 | 1.01 ± 0.011 | 0.935 ± 0.017 | 1 ± 0.029 | 1.05 ± 0.032 | 1.04 ± 0.059 | 1.084 ± 0.008 | 1.08 ± 0.016 | 0.991 ± 0.041 | 0.731 ± 0.029 | 0.51 ± 0.035 | 0.51 ± 0.046
LNCAP PROSTATE | 0.795 ± 0.11 | 0.855 ± 0.081 | 0.828 ± 0.11 | 0.99 ± 0.11 | 0.854 ± 0.17 | 0.921 ± 0.094 | 0.945 ± 0.024 | 0.884 ± 0.18 | 0.965 ± 0.021 | 0.957 ± 0.042 | 0.961 ± 0.059 | 0.851 ± 0.061 | 0.575 ± 0.011 | 0.5 ± 0.024 | 0.428 ± 0.018 | 0.422 ± 0.032
SCC003 HEADNECK | 0.843 ± 0.1 | 0.826 ± 0.05 | 0.942 ± 0.11 | 0.907 ± 0.086 | 0.917 ± 0.079 | 0.924 ± 0.056 | 0.689 ± 0.037 | 0.648 ± 0.033 | 1.09 ± 0.11 | 1.1 ± 0.033 | 1.16 ± 0.03 | 0.87 ± 0.052 | 0.594 ± 0.021 | 0.541 ± 0.026 | 0.549 ± 0.042 | 0.509 ± 0.037
